The text below walks through data of ChEMBL document CHEMBL1149568, “Design, synthesis, and molecular modeling studies of 5'-deoxy-5'-ureidoadenosine: 5'-ureido group as multiple hydrogen bonding donor in the active site of S-adenosylhomocysteine hydrolase” (Bioorg Med Chem Lett, 2007).

pIC50: −log10 of the molar value.

The assay addresses Adenosylhomocysteinase (Homo sapiens, UniProt P23526). Nature of the assay: Inhibition of human recombinant placental SAH.

Sequence of Adenosylhomocysteinase (P23526 whole entry): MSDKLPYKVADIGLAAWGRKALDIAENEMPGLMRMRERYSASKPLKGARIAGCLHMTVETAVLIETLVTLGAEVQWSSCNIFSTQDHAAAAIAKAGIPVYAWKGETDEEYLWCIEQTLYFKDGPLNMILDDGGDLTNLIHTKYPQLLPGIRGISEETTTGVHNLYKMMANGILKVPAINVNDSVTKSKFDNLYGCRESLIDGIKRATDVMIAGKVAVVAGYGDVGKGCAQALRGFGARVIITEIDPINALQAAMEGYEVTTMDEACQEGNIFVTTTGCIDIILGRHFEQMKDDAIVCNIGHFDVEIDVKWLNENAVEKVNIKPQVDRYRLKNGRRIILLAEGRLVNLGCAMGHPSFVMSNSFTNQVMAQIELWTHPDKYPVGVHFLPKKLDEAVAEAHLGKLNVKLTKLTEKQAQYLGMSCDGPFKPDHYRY

For `NC(=O)NC[C@H]1O[C@@H](n2cnc3c(N)ncnc32)[C@H](O)[C@@H]1O`, the pIC50 was 5.12. Regarding `[N-]=[N+]=NC[C@H]1O[C@@H](n2cnc3c(N)ncnc32)[C@H](O)[C@@H]1O`, the pIC50 was 4.54.

Consider `NC[C@H]1O[C@@H](n2cnc3c(N)ncnc32)[C@H](O)[C@@H]1O`, for which the pIC50 was 4.12.

As usually defined, the pIC50 is the IC50 on a negative log10 scale, so that one unit is a factor of ten.
